Results from patent US20230339874A1, “PIPERAZINYL COMPOUNDS AND METHODS FOR TREATING NEMATODE INFECTIONS” (The Governing Council of the University of Toronto, priority 2020, published 2023).
Like-named read-outs stand apart in the source and are kept apart here.

Key:
C. elegans L3 larvae = C. elegans L3 larvae abnormal locomotory behaviour on solid agar; details: solid agar MYOB + E. coli OP50, mean of 4 replicates; for % C. elegans L3 larvae any phene 1 h (conc.): 1 h exposure; for % C. elegans L3 larvae any phene 6 h (conc.): 6 h exposure; for % C. elegans L3 larvae any phene 24 h (conc.): 24 h exposure
Method: 20 animals were scored after either 1, 6 or 24 hours of exposure to drug (as indicated) per replicate. […] Data are reported as the mean % of animals with abnormal phenotype over 4 independent replicates.

Strongyloides ratti L3 = type: in vivo; details: 72 h incubation, 1 replicate
[1] = system: Heligmosomoides polygyrus larval stage 3 (L3) worms; type: in vivo; details: 72 h incubation, one replicate
[2] = system: Danio rerio (zebrafish) embryos; experiment: Danio rerio (zebrafish) embryo abnormal developmental phenotype; type: in vivo
[3] = system: Pristionchus pacificus young adult animals; experiment: Pristionchus pacificus young adult abnormal locomotory behaviour on solid agar; type: in vivo; details: read-out: P. pacificus, young adult 1 h any phene at 1 h (EC50 (μM))
[4] = read-out: D. rerio (zebrafish) any phenotype EC50 (μM)
[5] = 1 h exposure, tested at 3.75, 15 and 60 μM, NA = not active, no phenotype at 60 μM
[6] = 1 day post fertilization embryos through 48 h of development, tested at 15 and 3.75 μM, select compounds at 60 and 30 μM, read-out: D. rerio (zebrafish) any phenotype EC50

SMILES | % C. elegans L3 larvae any phene 1 h (conc.) (C. elegans L3 larvae; 3.75 uM) [%] | % C. elegans L3 larvae any phene 6 h (conc.) (C. elegans L3 larvae; 3.75 uM) [%] | % C. elegans L3 larvae any phene 24 h (conc.) (C. elegans L3 larvae; 3.75 uM) [%] | % C. elegans L3 larvae any phene 1 h (conc.) (C. elegans L3 larvae; 15 uM) [%] | % C. elegans L3 larvae any phene 6 h (conc.) (C. elegans L3 larvae; 15 uM) [%] | % C. elegans L3 larvae any phene 24 h (conc.) (C. elegans L3 larvae; 15 uM) [%] | % C. elegans L3 larvae any phene 1 h (conc.) (C. elegans L3 larvae; 60 uM) [%] | % C. elegans L3 larvae any phene 6 h (conc.) (C. elegans L3 larvae; 60 uM) [%] | % C. elegans L3 larvae any phene 24 h (conc.) (C. elegans L3 larvae; 60 uM) [%] | S. ratti L3 % lethality 25 μM (Strongyloides ratti L3) [%] | H. Polygyrus % lethality L3 25 μM [1] [%] | EC50 [2, 4] [µM] | EC50 ([3]; 1 h) [µM] | EC50 [3, 5] [µM] | EC50 [2, 6] [µM]
FC(F)(F)c1cccc(N2CCN(C3CCCCCC3)CC2)c1 [VI-h] | 64.2 | 0.0 | 0.0 | 100.0 | 37.5 | 25.0 | 100.0 | 100.0 | 62.5 | 0 | 0 | 7.8 |  |  | 
FC(F)(F)c1cccc(N2CCN(CC3CC4C=CC3C4)CC2)c1 (stereo not drawn) [VI-f] | 34.2 | 0.0 | 0.0 | 81.7 | 83.2 | 52.5 | 100.0 | 100.0 | 92.5 | 0 | 0 | 7.8 | 2.8 |  | 
O=[N+]([O-])c1ccc(CN2CCN(C3CCCC3)CC2)cc1 [II-b] | 0.0 | 0.8 | 0.0 | 2.5 | 0.0 | 0.0 | 23.3 | 29.2 | 0.0 |  |  |  | > 60 |  | 
O=C(C1CCCC1)N1CCN(c2ccc([N+](=O)[O-])cc2)CC1 [III-b] | 0.0 | 0.0 | 0.0 | 0.0 | 0.0 | 0.0 | 9.2 | 8.3 | 0.0 |  |  |  |  | > 60 | 7.8
CC1CCC(N2CCN(c3cccc(Cl)c3)CC2)C1 (stereo not drawn) [VI-d] | 80.0 | 11.7 | 0.0 | 100.0 | 59.2 | 0.0 | 100.0 | 100.0 | 66.7 | 17.9 | 56.5 | 15 | 2.5 |  | 
O=C(c1ccc([N+](=O)[O-])cc1)N1CCN(C2CCCC2)CC1 [III-d] | 0.8 | 0.0 | 0.0 | 14.2 | 1.7 | 0.0 | 30.8 | 17.5 | 0.0 |  |  |  |  | > 60 | > 15
O=C(C1CCC1)N1CCN(c2ccc(F)cc2)CC1 [III-c] | 0.0 | 0.0 | 0.0 | 10.0 | 0.0 | 0.0 | 27.5 | 15.0 | 0.0 |  |  |  |  | > 60 | > 15
FC(F)(F)c1cccc(N2CCN(CC3CCCCC3)CC2)c1 [VI-g] | 9.2 | 0.0 | 0.0 | 65.0 | 21.7 | 0.0 | 94.2 | 54.2 | 1.7 | 0 | 11.6 | 29.3 |  |  | 
O=[N+]([O-])c1cccc(CN2CCN(C3CCCCC3)CC2)c1 [II-a] | 0.8 | 0.0 | 0.0 | 0.0 | 0.0 | 0.0 | 6.7 | 2.5 | 0.0 |  |  |  | > 60 |  | 
c1cc(N2CCN(CC3CCCCC3)CC2)ccn1 [IV-a] | 0.0 | 0.0 | 0.0 | 10.8 | 0.0 | 0.0 | 24.2 | 12.5 | 0.0 |  |  | > 15 |  |  | 
CCN1CCN(CC2CCCCC2)CC1 [I-a] | 3.3 | 0.0 | 0.0 | 6.7 | 0.0 | 0.0 | 19.2 | 5.8 | 0.0 |  |  | > 15 | > 60 |  | 
c1cc(N2CCN(CC3CCC3)CC2)ccn1 [IV-b] | 4.2 | 0.0 | 0.0 | 21.7 | 0.8 | 0.0 | 30.0 | 4.2 | 1.7 |  |  | > 15 |  |  | 
Fc1ccccc1N1CCN(C2CCCCCC2)CC1 [VI-j] | 25.8 | 0.8 | 0.0 | 69.2 | 12.5 | 0.0 | 100.0 | 41.7 | 9.2 | 66.7 | 35.4 | 21.1 | 41.5 |  | 
